Source: ChEMBL document CHEMBL1129877, “Design, synthesis and biological evaluation of 1,3-diaminopropanes: a new class of polyamine analogs as leishmanicidal agents” (1997)

Legend:
Assay type in all cases: functional
[1] = tested on: Leishmania donovani; test: In vivo anti-leishmanial activity to Leishmania donovani infected hamster after intraperitoneal dose of 50 mg/kg X 5 on day 7th; details: ip
[2] = Tested in vivo for anti-leishmanial activity against Leishmania donovani infected hamster auratus after oral dose of 50 mg/kg X 5 on day 7th
[3] = Tested in vivo for anti-leishmanial activity against Leishmania donovani infected hamster intraperitoneal dose of 100 mg/kg X 5 on day 7th; details: ip
[4] = Tested in vivo for anti-leishmanial activity against Leishmania donovani infected hamster auratus after oral dose of 25 mg/kg X 5 on day 7th
[5] = Tested in vivo for anti-leishmanial activity against Leishmania donovani infected hamster intraperitoneal dose of 25 mg/kg X 5 on day 7th; details: ip

| Compound | inhibition in vivo at 50 mg/kg [1] [%] | also measured |
| --- | --- | --- |
| CCN1CCCN(CCCN2CCCCC2)C1=O | 41.2 | – |
| NCCCN1CCC(c2ccccn2)CC1 | 48.7 | – |
| NCCCN1CCCCC1 | 52.4 | – |
| CN1CCN(CCCN)CC1 | 66.9 | – |
| COC(=O)/N=C(\NCCCN1CCC(C)CC1)NC(=O)OC | 78.4 | inhibition in vivo at 50 mg/kg [2]: 76.8%; inhibition in vivo at 100 mg/kg [3]: 46.4%; inhibition in vivo at 25 mg/kg [4]: 77.6%; inhibition in vivo at 25 mg/kg [5]: 80.9% |
| N#CCCNCCCN1CCC(c2ccccc2)CC1 | 43.4 | – |
| O=C1NCCCN1CCCN1CCCCC1 | 43 | – |
| COC(=O)/N=C(\NCCCN1CCC(c2ccccn2)CC1)NC(=O)OC | 72.8 | inhibition in vivo at 25 mg/kg [5]: 73.2% |
| CCN1CCCN(CCCN2CCC(C)CC2)C1=O | 25 | – |
| N=C(N)NCCCN1CCCCC1 | 42.1 | – |
| COC(=O)/N=C(\NCCCN1CCCCC1)NC(=O)OC | 56.2 | – |
| N=C(N)NCCCN1CCC(c2ccccc2)CC1 | 57.7 | – |
| COC(=O)/N=C(\NCCCN1CCOCC1)NC(=O)OC | 80.2 | – |
| N#CCCNCCCN1CCCCC1 | 64.8 | – |
| CN1CCN(CCCN=C(N)N)CC1 | 45.1 | – |
| CC1CCN(CCCN=C(N)N)CC1 | 62.2 | – |
| COC(=O)/N=C(\NCCCN1CCC(c2ccccc2)CC1)NC(=O)OC | 66.5 | – |
| CN1CCN(CCCNCCC#N)CC1 | 78.1 | – |
| CN1CCN(CCCN2CCCNC2=O)CC1 | 52.1 | – |
| CC1CCN(CCCN2CCCNC2=O)CC1 | 60.8 | – |
| CC1CCN(CCCN)CC1 | 54.5 | – |
| NCCCN1CCOCC1 | 45.8 | – |
| N#CCCNCCCN1CCN(c2ccccc2)CC1 | 71 | inhibition in vivo at 25 mg/kg [5]: 71.2% |
| NCCCN1CCN(c2ccccc2)CC1 | 37.2 | – |
| COC(=O)/N=C(\NCCCN1CCN(C)CC1)NC(=O)OC | 85.5 | – |
| CC1CCN(CCCNCCC#N)CC1 | 45 | – |
| NCCCN1CCC(c2ccccc2)CC1 | 66 | – |
| COC(=O)/N=C(\NCCCN1CCN(c2ccccc2)CC1)NC(=O)OC | 73.8 | – |
